What was measured:
WT virus = assay: Susceptibility of virus to NRTIs (antiviral potency), Example 1; format: cell-based, HIV-1; details: for EC50: Human immunodeficiency virus 1
Method: (§1) Common doravirine-associated mutants containing F227C substitution were derived from SDM. The experimental conditions for susceptibility evaluation are described in Lai, Ming-Tain, et al., In Vitro Characterization of MK-1439, a Novel HIV-1 Nonnucleoside Reverse Transcriptase Inhibitor. Antimicrobial Agents and Chemotherapy 58(3): 1652-1663, 2014. These mutants conferred more than 100-fold of resistance to DOR. The susceptibility of the mutants to EFdA and 3TC was also evaluated under the same conditions. […] In contrast, the mutants are hypersusceptible to EFdA with 2-5 fold increase in susceptibility with all mutants except the quardruple mutant.

V106I/F227C/H221Y mutant = assay: Susceptibility of SDM derived DOR-resistant mutant to NRTIs, Example 1; format: cell-based, HIV-1; details: for EC50: Human immunodeficiency virus 1, read-out: Antiviral Potency
Text: (§2) Common doravirine-associated mutants containing F227C substitution were derived from SDM.

A98G/F227C mutant = assay: as above; format: cell-based, HIV-1; details: for EC50: Human immunodeficiency virus 1, read-out: Antiviral Potency (nM)
Text: as §2

V106M/F227C mutant = assay: as above; format: cell-based, HIV-1; details: for EC50: Human immunodeficiency virus 1, read-out: Antiviral Potency
Text: as §2

F227C mutant = assay: as above; format: cell-based, HIV-1; details: for EC50: Human immunodeficiency virus 1, read-out: Antiviral Potency
Method: as §1

V106I/F227C mutant = assay: as above; format: cell-based, HIV-1; details: for EC50: Human immunodeficiency virus 1, read-out: Antiviral Potency
Method: as §1

[1] = tested on: A98G/V106I/H221Y/F227C mutant; assay: as above; format: cell-based, HIV-1; details: for EC50: Human immunodeficiency virus 1, read-out: Antiviral Potency
Method: as §1

K103N/Y181C mutant virus [2] = details: 100% normal human serum (NHS), read-out: EC50 suppressing replication; cited from earlier work
wild type (WT) virus = details: 100% normal human serum (NHS), read-out: EC50 suppressing replication; cited from earlier work
HIV-1 [3] = details: escalating concentrations of DOR; cited from earlier work
[4] = tested on: other prevalent NNRTI-associated mutants; assay: Inhibitory quotients against other NNRTI-associated mutants; format: cell-based, HIV-1; details: with the exception of Y188L
Method: (§3) Inhibitory quotients (IQs) were calculated by determining the ratio of the clinical trough concentration over the antiviral EC50 of various viruses. IQs have been employed to predict the potential efficacy of anti-viral agents.

K103N/Y181C mutant virus [5] = assay: Suppression of virus replication in vitro in 100% normal human serum; inhibitory quotient; format: cell-based, HIV-1; details: ratio of clinical trough concentration over antiviral EC50
Method: (§4) In addition, the susceptibility of a broader array of clinical-NNRTI-associated mutant viruses (a total of 96 viruses) to doravirine and other benchmark NNRTIs was investigated. […] See Lai, Ming-Tain, et al., In Vitro Characterization of MK-1439, a Novel HIV-1 Nonnucleoside Reverse Transcriptase Inhibitor. Antimicrobial Agents and Chemotherapy 58(3): 1652-1663, 2014.
as §3

Y181C mutant virus [6] = assay: as above; format: cell-based, HIV-1; details: ratio of clinical trough concentration over antiviral EC50
Method: as §4, §3

K103N mutant virus [7] = assay: as above; format: cell-based, HIV-1; details: ratio of clinical trough concentration over antiviral EC50
Method: as §4, §3

[8] = tested on: clinical-NNRTI-associated mutant viruses (a total of 96 viruses); details: 96 clinical NNRTI-associated mutant viruses; cited from earlier work
Y181C mutant virus [9] = details: 100% normal human serum (NHS), read-out: EC50 suppressing replication; cited from earlier work
K103N mutant virus [10] = details: 100% normal human serum (NHS), read-out: EC50 suppressing replication; cited from earlier work
HIV = details: compared with EFddA lacking a 3′-OH; cited from earlier work
HIV-1 [11] = assay: Proof of concept study in HIV-1 infected patients; format: in vivo, human; details: single dose as low as 0.5 mg
Method: EFdA was tested in HIV-1 infected patients for a proof of concept study.

[12] = tested on: Common doravirine-associated mutants containing F227C substitution; assay: Susceptibility of the SDM derived doravirine-associated mutants as a group; format: cell-based, HIV-1
Method: Site-directed mutagenesis (SDMs) were generated for the substitutions V1061/F227C, V1061/H221Y/F227C, A98G/V1061/H221Y/F227C, and V106M/F227C and their susceptibility to NNRTIs was evaluated. Most of the mutants conferred a high level of resistance to DOR with a fold change (FC)>100 (FC: mutantEC50 versus WTEC50).
FIG. 1. Susceptibility of SDM derived DOR-resistant clinical mutants to NRTIs. […] In contrast, the mutants are hypersusceptible to EFdA with 2-5 fold increase in susceptibility except the quardruple mutant.
as §1

SMILES	Fold-change (EC50mut/WT EC50wt) (WT virus)	EC50 (WT virus)	EC50 (V106I/F227C/H221Y mutant)	EC50 (A98G/F227C mutant)	EC50 (V106M/F227C mutant)	Fold-change (EC50mut/WT EC50wt) (F227C mutant)	EC50 (F227C mutant)	Fold-change (EC50mut/WT EC50wt) (V106I/F227C mutant)	EC50 (V106I/F227C mutant)	Fold-change (EC50mut/WT EC50wt) [1]	EC50 [1]	Inhibitory quotient (IQ) (K103N/Y181C mutant virus [5])	Inhibitory quotient (IQ) (Y181C mutant virus [6])	Inhibitory quotient (IQ) (K103N mutant virus [7])	also measured
Nc1ccn([C@@H]2CS[C@H](CO)O2)c(=O)n1 [3TC, lamivudine, reference compound]	1.0	601 ± 142 nM	758 ± 244 nM	809 ± 146 nM	771 ± 62 nM	2.26	1360 ± 94 nM	1.15	692 ± 212 nM	1.93	1160 ± 314 nM	–	–	–	–
Cn1c(Cn2ccc(C(F)(F)F)c(Oc3cc(Cl)cc(C#N)c3)c2=O)n[nH]c1=O [Doravirine]	–	–	–	–	–	–	–	–	–	–	–	25	27	39	EC50 (K103N/Y181C mutant virus [2]): 33 nM; EC50 (wild type (WT) virus): 12 nM; mutations emerging in resistance selection (HIV-1 [3]): V106A mutant led two mutation pathways, followed by the emergence of F227L and L234I substitutions; IQ values compared with RPV and EFV [4]: higher IQ values than RPV and EFV; mutant profile versus benchmark NNRTIs [8]: superior overall to that of efavirenz (EFV) and comparable to that of etravirine (ETR) and rilpivirine (RPV); EC50 (Y181C mutant virus [9]): 31 nM; EC50 (K103N mutant virus [10]): 21 nM
O=C1Nc2ccc(Cl)cc2[C@@](C#CC2CC2)(C(F)(F)F)O1 [EFV, efavirenz]	–	–	–	–	–	–	–	–	–	–	–	1.9	60	2.5	–
C#C[C@]1(CO)O[C@@H](n2cnc3c(N)nc(F)nc32)C[C@@H]1O [EFdA, 4′-ethynyl-2-fluoro-2′-deoxyadenosine]	1.0	0.81 ± 0.029 nM	0.4 ± 0.075 nM	0.15 ± 0.026 nM	0.3 ± 0.048 nM	0.18	0.15 ± 0.026 nM	0.44	0.35 ± 0.048 nM	1.00	0.81 ± 0.124 nM	–	–	–	antiviral activity relative to EFddA (HIV): 10,000 times; duration of suppression of HIV replication (HIV-1 [11]): at least seven days; susceptibility / potency of mutants compared with WT virus ([12]; mutants containing F227C substitution): better potency compared to WT virus; fold increase in susceptibility (hypersusceptible) ([12]; {}): 2-5 fold; Fold-change (EC50mut/WT EC50wt) (V106I/F227C/H221Y mutant): 0.49; Fold-change (EC50mut/WT EC50wt) (A98G/F227C mutant; A98G/F227C): 0.18; Fold-change (EC50mut/WT EC50wt) (V106M/F227C mutant): 0.37
Cc1cc(/C=C/C#N)cc(C)c1Nc1ccnc(Nc2ccc(C#N)cc2)n1 [RPV, rilpivirine]	–	–	–	–	–	–	–	–	–	–	–	0.8	1.4	4.6	–
